Where two headings read alike, the source gives them in different places.

For one test, the system named is 30 common targets. The experiment in a line: Pharmacology safety screening, radioligand binding assays. Conditions: 10 µM; significant = over 50% inhibition or stimulation. As to the method:
Pharmacology safety of FP802 was evaluated in radio ligand binding assays carried out by Eurofins Panlabs Discovery Services Taiwan, Ltd. Significant responses are defined as over 50% inhibition or stimulation in the primary assays.
Table S1. Pharmacology safety profile of FP802. […]

Test [1] has as its system human iPSC-derived forebrain organoids. The experiment in a line: NMDA-induced neurotoxicity in human iPSC-derived forebrain organoids. It counts as cell-based. Conditions: for IC50: Homo sapiens, NMDA 300 μM, read-out: IC50, protection against NMDA-induced neurotoxicity. As to the method: The generation of human-iPSC-derived forebrain organoids was carried out in accordance with the regulations of Heidelberg University. The sporadic ALS iPSC line and the SOD1^G94A ALS iPSC line were purchased from Cedars-Sinai (CS2XWCiALS-nxx and CS2RJViALS-nxx). The healthy control iPSC lines were from Dr. Jochen Utikal (DKFZ, Germany). Forebrain organoids were generated and maintained as described previously.[37]^,[45] Briefly, hiPSCs were dissociated into single cells by Accutase and aggregated in round bottom 96-microwell plates with 5 min centrifugation at 600 rpm. On the second day, hiPSC aggregates were collected and transferred into low attachment 35 mm dishes (24 aggregates/dish) and kept in neural induction medium (DMEM/F12 medium supplemented with 1× penicillin/streptomycin, 1× Normocin, 1× GlutaMAX, 1× N-2 supplement, 2× B27 without vitamin A, 500 nM dorsomorphin, 50 ng/mL recombinant human noggin, 10 μM SB431542, 2 μM IWP-2, 1 μM cyclopamine, and 0.1% β-mercaptoethanol) for 3 days with a daily medium change. Recombinant human FGF (10 ng/mL) was present in neural induction medium from day 4 to day 7 with one medium change on day 5.5. On day 7, neural induction medium was changed to proliferation medium (neurobasal medium supplemented with 1× GlutaMAX, 1× penicillin/streptomycin, 1× Normocin, 1× B27 without vitamin A, 10 ng/mL recombinant human FGF, 10 ng/mL recombinant human EGF, 2 μM IWP-2, and 1 μM cyclopamine) for two weeks with medium change every 2–3 days. In week 4–5, the proliferation medium was changed to differentiation medium (neurobasal medium supplemented with 1× GlutaMAX, 1× penicillin/streptomycin, 1× Normocin, 10 ng/mL recombinant human BDNF, and 10 ng/mL recombinant human NT-3) with medium change every 2–3 days. From week 6, the organoids were kept in the maturation medium (BrainPhys medium supplemented with 1× GlutaMAX, 1× penicillin/streptomycin, 1× Normocin) until week 18–20 when they were used for experiments.
The analysis of forebrain organoid cell types that undergo NMDA-induced cell death was done using immunostainings of cryosections of 20-week-old forebrain organoids with antibodies against the neuronal markers, NeuN and Myelin transcription factor 1 like (Myt1L) protein, and the astrocyte marker, glial fibrillary acidic protein (GFAP) using the following procedure. All organoids were washed with PBS twice and fixed using 4% paraformaldehyde in PBS for 30 min, followed by 24 h incubation with 30% sucrose solution in PBS. Organoids were snap frozen on dry ice in cryoprotectants and 30 μm cryosections were prepared for staining. […] Cells stained with NeuN, Myt1L, and Hoechst were automatically counted with ImageJ with the particle analyzer with a self-developed macro using the Binary-Watershed function, size exclusion was set at 60 μm^2. NeuN-positive and Myt1L-positive post-mitotic neurons were counted in confocal section z-stacks of whole organoids (5–8 organoids from 2 batches) with ImageJ with the particle analyzer with a self-developed macro using the Binary-Watershed function, size exclusion was set at 60 μm^2 and expressed as a percentage of total Hoechst-stained nuclei. GFAP staining was quantified by measuring the fluorescent signals of z-stacks of confocal sections of whole organoids (5–6 organoids from 2 batches) using ImageJ and expressed as arbitrary units. […]

The target of test [2] is T1, human GluN1/GluN2A NMDARs (Homo sapiens, UniProt Q05586+Q12879).
T1 construct: host or cells: HEK293
T1 sequence (Q12879 23-1464, other chains not shown): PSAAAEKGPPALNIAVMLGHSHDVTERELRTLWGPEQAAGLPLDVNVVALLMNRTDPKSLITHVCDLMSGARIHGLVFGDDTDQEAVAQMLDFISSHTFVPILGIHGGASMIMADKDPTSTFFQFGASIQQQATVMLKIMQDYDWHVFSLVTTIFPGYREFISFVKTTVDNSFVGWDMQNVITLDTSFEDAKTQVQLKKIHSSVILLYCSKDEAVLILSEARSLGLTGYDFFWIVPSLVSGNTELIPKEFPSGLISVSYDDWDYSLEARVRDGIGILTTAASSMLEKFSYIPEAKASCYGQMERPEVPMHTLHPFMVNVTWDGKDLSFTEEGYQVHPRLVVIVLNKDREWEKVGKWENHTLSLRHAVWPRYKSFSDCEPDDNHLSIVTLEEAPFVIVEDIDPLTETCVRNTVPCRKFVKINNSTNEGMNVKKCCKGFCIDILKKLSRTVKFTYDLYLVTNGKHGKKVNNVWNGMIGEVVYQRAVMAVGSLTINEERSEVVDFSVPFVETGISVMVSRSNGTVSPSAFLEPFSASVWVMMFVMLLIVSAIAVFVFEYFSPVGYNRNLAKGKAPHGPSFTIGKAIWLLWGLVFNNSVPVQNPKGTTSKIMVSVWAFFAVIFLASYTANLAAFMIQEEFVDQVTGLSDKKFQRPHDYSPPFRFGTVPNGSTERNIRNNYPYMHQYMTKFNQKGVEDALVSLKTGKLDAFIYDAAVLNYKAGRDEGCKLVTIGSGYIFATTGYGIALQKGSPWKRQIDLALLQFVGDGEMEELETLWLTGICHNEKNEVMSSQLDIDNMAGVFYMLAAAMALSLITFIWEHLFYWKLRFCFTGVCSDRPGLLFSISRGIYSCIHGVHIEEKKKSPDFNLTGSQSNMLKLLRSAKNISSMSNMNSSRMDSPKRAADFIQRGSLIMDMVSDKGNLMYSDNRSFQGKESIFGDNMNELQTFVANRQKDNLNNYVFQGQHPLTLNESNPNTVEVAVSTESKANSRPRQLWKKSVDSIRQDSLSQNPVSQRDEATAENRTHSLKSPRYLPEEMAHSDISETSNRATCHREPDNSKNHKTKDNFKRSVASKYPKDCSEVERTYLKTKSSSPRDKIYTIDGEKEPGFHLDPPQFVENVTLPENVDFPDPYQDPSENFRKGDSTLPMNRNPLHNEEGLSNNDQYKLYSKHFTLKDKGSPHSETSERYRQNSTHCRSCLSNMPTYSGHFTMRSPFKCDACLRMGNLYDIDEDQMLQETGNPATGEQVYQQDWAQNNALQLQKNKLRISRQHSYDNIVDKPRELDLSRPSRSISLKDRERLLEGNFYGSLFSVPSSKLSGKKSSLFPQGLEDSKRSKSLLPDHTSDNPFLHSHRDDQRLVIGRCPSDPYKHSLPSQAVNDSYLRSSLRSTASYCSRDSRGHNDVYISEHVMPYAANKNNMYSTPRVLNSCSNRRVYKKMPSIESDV
The test can be described thus: Automated patch clamp, NMDARs in HEK293 cells. Type of test: cell-based. Conditions: +40 mV; glycine 100 μM plus NMDA 90 μM; stable HEK293. As to the method:
(§1) Recombinant human GluN1 (UniProt ID Q05586) with GluN2A (Uniprot Q12879) or GluN2B (Uniprot Q13224) NMDARs were stably expressed under tetracycline control in HEK293 cell lines (Charles River). Voltage-clamp recordings were performed using the Sophion Qube platform which performs 384 parallel and independent patch-clamp recordings with digitally controlled microfluidics (Tecan D300) on a disposable single-hole or multi-hole QChip. The following extracellular solution was used: 145 mM NaCl, 4 mM KCl, 10 mM HEPES, 10 mM glucose, 2 mM CaCl2, 1 mM MgCl2; pH 7.4. The following intracellular solution was used: 70 mM CsF, 70 mM CsCl, 10 mM HEPES, 1 mM EGTA; 316 mOsm, pH 7.2. For analysis of channel activation kinetics, cells were held at −70 mV and stepped to −20 mV before the application of glycine (100 μM) plus NMDA (90 μM for GluN1/GluN2A and 40 μM for GluN1/GluN2B). […] Quality control thresholds were set according to the seal resistance (minimum […]), and failed experiments were excluded from the analysis. For analysis of steady state agonist IC50 values, voltage steps to +40 mV were performed in the presence and absence of agonists before and after compound application in the same cell. IC50 data were generated from agonist responses as described before.[20]
(§2) Figure S1. Analysis of IC50 values of FP802 for NMDARs in HEK293 cells. […] The effects of FP802 on NMDARs were evaluated at +40 […]
Background: Patch clamp records ionic current or voltage across a cell membrane.

The target of test [3] is T2, human GluN1/GluN2B NMDARs (Homo sapiens, UniProt Q05586+Q13224).
T2 construct: host or cells: HEK293
T2 sequence (Q13224 27-1484, other chains not shown): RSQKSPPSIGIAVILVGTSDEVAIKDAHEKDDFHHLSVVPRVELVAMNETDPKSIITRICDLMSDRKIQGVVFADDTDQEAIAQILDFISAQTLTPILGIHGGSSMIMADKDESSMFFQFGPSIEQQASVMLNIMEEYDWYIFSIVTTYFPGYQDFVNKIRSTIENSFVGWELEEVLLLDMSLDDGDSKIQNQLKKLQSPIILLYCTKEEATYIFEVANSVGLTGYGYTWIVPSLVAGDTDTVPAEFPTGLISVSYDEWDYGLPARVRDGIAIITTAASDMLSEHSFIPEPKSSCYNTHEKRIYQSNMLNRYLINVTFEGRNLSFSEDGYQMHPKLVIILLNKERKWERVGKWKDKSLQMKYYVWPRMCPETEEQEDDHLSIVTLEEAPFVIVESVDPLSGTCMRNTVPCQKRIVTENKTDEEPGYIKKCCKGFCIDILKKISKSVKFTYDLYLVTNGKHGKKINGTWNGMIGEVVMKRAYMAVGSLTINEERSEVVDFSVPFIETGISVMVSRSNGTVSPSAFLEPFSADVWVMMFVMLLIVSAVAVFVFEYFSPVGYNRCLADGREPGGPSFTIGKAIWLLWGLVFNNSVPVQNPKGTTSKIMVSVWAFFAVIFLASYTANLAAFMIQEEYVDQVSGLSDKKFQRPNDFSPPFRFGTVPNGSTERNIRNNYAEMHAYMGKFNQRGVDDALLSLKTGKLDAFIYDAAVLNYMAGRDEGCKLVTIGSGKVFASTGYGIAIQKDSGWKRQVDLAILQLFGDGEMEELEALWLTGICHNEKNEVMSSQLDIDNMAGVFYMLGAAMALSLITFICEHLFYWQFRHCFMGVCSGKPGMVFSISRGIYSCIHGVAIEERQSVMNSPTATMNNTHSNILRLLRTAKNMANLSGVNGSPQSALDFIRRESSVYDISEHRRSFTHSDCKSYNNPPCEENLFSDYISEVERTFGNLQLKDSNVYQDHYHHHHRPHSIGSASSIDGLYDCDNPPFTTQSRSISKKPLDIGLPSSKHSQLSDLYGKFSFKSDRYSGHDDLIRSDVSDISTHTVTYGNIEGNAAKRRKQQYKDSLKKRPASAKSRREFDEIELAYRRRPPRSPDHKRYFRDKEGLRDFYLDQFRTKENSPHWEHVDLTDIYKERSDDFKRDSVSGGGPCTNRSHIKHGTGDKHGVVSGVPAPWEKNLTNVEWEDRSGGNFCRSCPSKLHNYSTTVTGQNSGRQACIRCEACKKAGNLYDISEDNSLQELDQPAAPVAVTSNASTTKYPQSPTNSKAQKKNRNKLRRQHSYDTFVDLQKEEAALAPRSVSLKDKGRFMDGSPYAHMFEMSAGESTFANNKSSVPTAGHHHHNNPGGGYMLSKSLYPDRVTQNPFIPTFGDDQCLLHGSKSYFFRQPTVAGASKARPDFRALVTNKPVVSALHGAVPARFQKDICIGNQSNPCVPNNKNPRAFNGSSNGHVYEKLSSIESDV
The test can be described thus: Automated patch clamp, NMDARs in HEK293 cells. Type of test: cell-based. Conditions: +40 mV; glycine 100 μM plus NMDA 40 μM; stable HEK293. As to the method: as §1, §2

`CCN(CCN)Cc1cccc(Cl)c1` [FP802]: the “binding activities in radioligand binding safety panel” value with 30 common targets was “No significant binding activities”. Besides, the IC50 (as a rule, the concentration that gives 50% inhibition) was 9 µM in test [1] (SOD1G94A ALS organoids); 26 µM in test [1] (healthy control-1 organoids); 15 µM in test [1] (healthy control-2 organoids); 9.3 µM in test [1] (sporadic ALS organoids); above 250 µM in test [2]; above 250 µM in test [3]. For the same compound, the “NMDA-induced death of neurons in ALS patient-derived organoids” value in test [1] (NMDA 300 μM 24 h, NeuN/Myt1L immunostaining and viability, dose-dependent) was “effectively blocked”.

Values taken from PMC10897598, “TwinF interface inhibitor FP802 stops loss of motor neurons and mitigates disease progression in a mouse model of ALS” (Cell Reports Medicine, 2024).
